Data published in patent publication US20050164951A1, “Inhibitors for the soluble epoxide hydrolase” (The Regents of the University of California, priority 2003, published 2005).
Read-outs that look alike come from different tables or passages of the source. Values belong to the compound of their own block, whether it stands above or below them.

Key:
rat sEH = biological target: T1, rat sEH (Rattus norvegicus, UniProt P80299); test: Relative turnover of arachidonic acid epoxides by rat sEH; type: biochemical; conditions: for Relative EET Turnover: Table 20, arachidonic acid epoxides with the rat sEH; for relative substrate turnover of the epoxy arachidonates: 1:1:2 mixture of 8,9-, 11,12-, and 14,15-EET hydrolyzed to 30% by rat renal cortex cytosol
T1 construct: was hydrolyzed to 30% by rat renal cortex cytosol; from tissue; host or cells: rat renal cortex cytosol
T1 sequence (P80299 1-554): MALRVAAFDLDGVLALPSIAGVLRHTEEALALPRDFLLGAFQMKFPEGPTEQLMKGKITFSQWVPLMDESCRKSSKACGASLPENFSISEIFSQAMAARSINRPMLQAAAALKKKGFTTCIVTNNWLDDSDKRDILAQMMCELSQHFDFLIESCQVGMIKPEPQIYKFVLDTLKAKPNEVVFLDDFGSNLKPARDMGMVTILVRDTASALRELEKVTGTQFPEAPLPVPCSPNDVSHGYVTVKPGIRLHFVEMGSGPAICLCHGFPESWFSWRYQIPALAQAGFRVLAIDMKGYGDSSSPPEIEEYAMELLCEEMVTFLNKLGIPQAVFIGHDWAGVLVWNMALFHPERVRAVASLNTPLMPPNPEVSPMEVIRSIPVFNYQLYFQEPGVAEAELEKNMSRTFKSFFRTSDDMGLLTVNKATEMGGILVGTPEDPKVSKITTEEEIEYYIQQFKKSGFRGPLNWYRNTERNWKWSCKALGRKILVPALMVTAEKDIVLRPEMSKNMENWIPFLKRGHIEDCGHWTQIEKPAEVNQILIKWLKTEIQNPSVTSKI
Experimental: For epoxy fatty acid hydrolysis, the soluble epoxide hydrolase prefers substrates with epoxide moieties that are more distant from the carboxyl terminal. Specifically the substrate preference decreases in the order of 14,15-EET >11,12-EET >8,9-EET >>>5,6-EET for the epoxides of arachidonic acid. Independently, the relative substrate turnover of the epoxy arachidonates were calculated at 0.1:8.1:14.3 when a 1:1:2 mixture of 8,9-, 11,12-, and 14,15-EET fatty acid was hydrolyzed to 30% by rat renal cortex cytosol. By considering the primary pharmacophore of the urea to be a transition-state analog of epoxide hydrolysis, preferred inhibitors have now been developed which incorporate long aliphatic acids. These compounds are better substrate and transition state mimics than those incorporating shorter aliphatic acids. Accordingly, optimal soluble epoxide hydrolase inhibitors can be obtained by producing compounds with aliphatic acid substituents (i.e. a tertiary pharmacophore) which are separated from the primary pharmacophore by an equivalent distance as the terminal acid is separated from the epoxide in optimal substrates. Within the enzyme active site, epoxy fatty acids have been predicted to exist in an extended or pseudo-linear confirmation. Therefore, both the epoxy fatty acids and the aliphatic acid containing urea structures were approximated as two dimensional linear representations and measurements were made on each species. The critical measurements taken were distances (in angstroms) from the carboxylate hydroxyl to the urea carbonyl and the urea nitrogens.

mouse sEH = biological target: T2, mouse sEH (Mus musculus, UniProt P34914); test: Inhibition of recombinant mouse sEH, IC50 assay with 4-nitrophenyl-trans-2,3-epoxy-3-phenylpropyl carbonate as substrate; type: biochemical; conditions: read-out: IC50 (μM) Mouse sEH
T2 construct: made in house; host or cells: baculovirus expression system
T2 sequence (P34914 1-554): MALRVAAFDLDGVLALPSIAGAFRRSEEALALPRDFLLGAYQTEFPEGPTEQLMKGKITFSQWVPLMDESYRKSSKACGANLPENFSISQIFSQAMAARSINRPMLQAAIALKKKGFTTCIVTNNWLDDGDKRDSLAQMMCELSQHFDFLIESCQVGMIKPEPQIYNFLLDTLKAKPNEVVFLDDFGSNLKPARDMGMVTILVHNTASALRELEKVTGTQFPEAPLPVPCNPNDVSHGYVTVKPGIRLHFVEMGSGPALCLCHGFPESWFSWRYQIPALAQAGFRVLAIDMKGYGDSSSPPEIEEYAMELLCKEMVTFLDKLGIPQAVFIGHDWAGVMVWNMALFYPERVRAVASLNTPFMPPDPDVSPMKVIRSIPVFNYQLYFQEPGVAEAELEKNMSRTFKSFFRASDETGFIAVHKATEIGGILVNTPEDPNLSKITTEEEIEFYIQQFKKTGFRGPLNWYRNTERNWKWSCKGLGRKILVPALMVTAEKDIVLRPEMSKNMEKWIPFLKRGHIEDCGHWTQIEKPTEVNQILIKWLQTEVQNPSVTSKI
Experimental: (§1) Assays were performed in triplicate. […] The curve was generated from at least three separate runs, each in triplicate, to obtain the standard deviation (SD) given in Table 1 thru Table 4.

human sEH = biological target: T3, human sEH (Homo sapiens, UniProt P34913); test: Inhibition of recombinant human sEH, IC50 assay with 4-nitrophenyl-trans-2,3-epoxy-3-phenylpropyl carbonate as substrate; type: biochemical
T3 construct: made in house; host or cells: baculovirus expression system
T3 sequence (P34913 1-555): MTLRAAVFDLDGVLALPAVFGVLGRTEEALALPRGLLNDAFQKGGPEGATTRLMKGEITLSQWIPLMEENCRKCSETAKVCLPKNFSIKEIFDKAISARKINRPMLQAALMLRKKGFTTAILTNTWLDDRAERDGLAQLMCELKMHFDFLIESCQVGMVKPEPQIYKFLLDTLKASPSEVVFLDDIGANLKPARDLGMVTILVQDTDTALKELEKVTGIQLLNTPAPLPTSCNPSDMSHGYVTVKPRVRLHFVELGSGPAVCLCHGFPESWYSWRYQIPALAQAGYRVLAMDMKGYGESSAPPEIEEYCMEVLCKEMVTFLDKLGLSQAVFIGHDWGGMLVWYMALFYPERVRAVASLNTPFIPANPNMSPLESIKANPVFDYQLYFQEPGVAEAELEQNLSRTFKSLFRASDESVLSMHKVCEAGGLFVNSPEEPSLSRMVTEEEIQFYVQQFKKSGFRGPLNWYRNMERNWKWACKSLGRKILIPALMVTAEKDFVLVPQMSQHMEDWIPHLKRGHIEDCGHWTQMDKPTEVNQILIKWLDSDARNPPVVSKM
Experimental: as §1

mouse and human sEH = test: sEH IC50 assay, comparisons of the text made for both enzymes or without naming the enzyme; type: biochemical
Experimental: as §1

Water solubility = type: physicochemical; conditions: for water solubility: compared with non-functionalized lipophilic inhibitors (791, 790); for solubility relative to the corresponding cyclohexyl derivative: 772 vs. 789, 791 vs. 790, 297 vs. 686
[1] = Blood concentration after oral administration of 950 and AUDA-nBE, human pharmacokinetic profile; type: in vivo; conditions: for pharmacokinetics: see FIGS. 15-27
Experimental: FIG. 16 provides a sample preparation procedure for a pharmacokinetic study. A 5 μl whole blood sample was drawn into a capillary at a specific time point, each sample was extracted and anaylzed by LC/MS-MS. […] AUDA is the active metabolite of AUDA-nBE. […] 0.05 mg/kg. (B). 0.1 mg/kg. […] The compounds were administered at the same time in the same formulation. […] 21 mg (0.3 mg/kg) 950 and AUDA-nBE were orally administrated with starch. (B). 7 mg (0.1 mg/kg) formulated 950 and AUDA-NBE were taken with (HPMC, starch and lactose). (C). […] 950 with HPMC and Starch. (B). 950 in lactose and HPMC. […] HPMC forms a gel which slowly erodes; lactose enhances erosion at it moves through the gut and starch retards it. These formulations are combined, ball milled, and then placed in ‘0’ capsule and not compressed.

[2] = Table 2, […] enzyme, 5 min preincubation, pH 7.4, 30° C., means ± SD
[3] = Table 2, […] enzyme, 5 min preincubation, pH 7.4, 30° C., means ± SD, read-out: IC50 (μM) Human sEH
[4] = Table 7, established protocols, read-out: IC50 (μM) Human sEH
[5] = Tables 17a and b, read-out: IC50 (μM) Human sEH
[6] = Table 8, established protocols, read-out: IC50 (μM) Human sEH

SMILES: CCCCC/C=C\C/C=C\C/C=C\CC1OC1CCCC(=O)O (centres unmarked) [5,6-EET]
Relative EET Turnover (rat sEH): 0.1

SMILES: CCCCC/C=C\C/C=C\CC1OC1C/C=C\CCCC(=O)O (centres unmarked) [8,9-EET]
relative substrate turnover of the epoxy arachidonates (rat sEH): 0.1
Relative EET Turnover (rat sEH): 1

SMILES: CCCCC/C=C\C[C@H]1O[C@H]1C/C=C\C/C=C\CCCC(=O)O [11,12-EET]
relative substrate turnover of the epoxy arachidonates (rat sEH): 8.1
Relative EET Turnover (rat sEH): 8.1

SMILES: CCCCCC1OC1C/C=C\C/C=C\C/C=C\CCCC(=O)O (centres unmarked) [14,15-EET]
relative substrate turnover of the epoxy arachidonates (rat sEH): 14.3
Relative EET Turnover (rat sEH): 14.3

SMILES: CCCCCOC(=O)CCCNC(=O)Nc1cccc(Cl)c1 [Compound 767, 1-(3-chlorophenyl)-3-(3-pentoxycarbonylpropyl)urea]
IC50 (mouse sEH; Table 3, […] enzyme, 5 min preincubation, pH 7.4, 30° C., means ± SD): 0.37 ± 0.04 µM
IC50 (human sEH; Table 3, […] enzyme, 5 min preincubation, pH 7.4, 30° C., means ± SD, read-out: IC50 (μM) Human sEH): 2.1 ± 0.07 µM
better inhibition than 761 (mouse and human sEH; methylene carbon left versus right of the carbonyl): 20 fold

SMILES: CCCCCOC(=O)CCCNC(=O)NC1CCCCC1 [Compound 772, 1-Cyclohexyl-3-(3-pentoxycarbonylpropyl)urea]
IC50 (mouse sEH; [2]): 0.05 ± 0.01 µM
IC50 (human sEH; [3]): 1.02 ± 0.05 µM
increase of inhibitor potency over the 3-chlorophenyl analog (767) (mouse and human sEH): 10 fold
water solubility (Water solubility): increases their water solubility

SMILES: COC(=O)CCCNC(=O)NC1CCCCC1 [Compound 774]
IC50 (mouse sEH; Table 1, 0.12 μM enzyme, 5 min preincubation, pH 7.4, 30° C., [S] = 40 μM, means ± SD of three experiments): 0.33 ± 0.03 µM
IC50 (human sEH): 6.2 ± 0.5 µM
fold higher activity than the esters of acetic and propanoic acids (549 and 635) (mouse and human sEH; for both enzymes): 8-100 fold

SMILES: CCCCCOC(=O)CCCNC(=O)NC12CC3CC(CC(C3)C1)C2 [Compound 789]
IC50 (mouse sEH; [2]): 0.05 ± 0.01 µM
IC50 (human sEH; [3]): 0.17 ± 0.01 µM
increase of inhibitor potency over the 3-chlorophenyl analog (767) (mouse and human sEH): 10 fold
solubility relative to the corresponding cyclohexyl derivative (Water solubility): approximately 2 x
water solubility (Water solubility): increases their water solubility

SMILES: CCOC(=O)c1ccc(C(C#N)OC(=O)C2CCCC(NC(=O)NC34CC5CC(CC(C5)C3)C4)C2)cc1 (centres unmarked) [Compound 1014]
IC50 (mouse sEH; Table 9, established protocols): 0.05 ± 0.01 µM
IC50 (human sEH; Table 9, established protocols, read-out: IC50 (μM) Human sEH): 0.14 ± 0.01 µM

The remaining lines, values ahead:

IC50 (mouse sEH; [2]): 0.05 ± 0.01 µM
IC50 (human sEH; [3]): 0.1 ± 0.01 µM
solubility relative to the corresponding cyclohexyl derivative (Water solubility): approximately 2 x
SMILES: CCCCCCCCCCNC(=O)NC12CC3CC(CC(C3)C1)C2 [Compound 790, reference compound]

IC50 (mouse sEH; Table 7, established protocols): 0.05 ± 0.01 µM
IC50 (human sEH; [4]): 0.16 ± 0.01 µM
water solubility (Water solubility): increased water solubility
pharmacokinetics [1]: improved pharmacokinetics
SMILES: COCCOCCCCCNC(=O)NC12CC3CC(CC(C3)C1)C2 [Compound 908]

pharmacokinetics [1]: improved pharmacokinetics
SMILES: COCCOCCOCCOCCCCCNC(=O)NC12CC3CC(CC(C3)C1)C2 [Compound 952]

detection in blood ([1]; FIG. 27, after oral 950): not detected at any time point
SMILES: CCCC(C)COCCCCCNC(=O)NC12CC3CC(CC(C3)C1)C2 (centres unmarked) [Compound 955]

IC50 (mouse sEH; Table 7, established protocols): 0.05 ± 0.01 µM
IC50 (mouse sEH; Tables 17a and b): 0.05 ± 0.01 µM
IC50 (human sEH; [4]): 0.13 ± 0.01 µM
IC50 (human sEH; [5]): 0.16 ± 0.01 µM
SMILES: O=C(NCCCCCOCCCCCOCC(F)(F)F)NC12CC3CC(CC(C3)C1)C2 [Compound 1004]

IC50 (mouse sEH; Table 7, established protocols): 0.05 ± 0.01 µM
IC50 (mouse sEH; Tables 17a and b): 0.05 ± 0.01 µM
IC50 (human sEH; [4]): 0.11 ± 0.01 µM
IC50 (human sEH; [5]): 0.11 ± 0.01 µM
SMILES: CCOC(=O)CCCCCCOCCCCCNC(=O)NC12CC3CC(CC(C3)C1)C2 [Compound 1006]

IC50 (mouse sEH; Tables 17a and b): 0.09 ± 0.01 µM
IC50 (human sEH; [5]): 100 ± 0.01 µM
SMILES: O=C(CCCNC(=O)NC12CC3CC(CC(C3)C1)C2)NC(C(=O)N1CCCC1C(=O)O)c1c[nH]cn1 (centres unmarked) [Compound 1012]

IC50 (mouse sEH; Tables 17a and b): 0.05 ± 0.01 µM
IC50 (human sEH; [5]): 1.5 ± 0.01 µM
SMILES: CSC(NC(=O)C(NC(=O)CCCNC(=O)NC12CC3CC(CC(C3)C1)C2)c1c[nH]cn1)C(=O)O (centres unmarked) [Compound 1013]

IC50 (mouse sEH; Tables 17a and b): 1.3 ± 0.01 µM
IC50 (human sEH; [5]): 8.7 ± 0.01 µM
SMILES: O=C(NN1CCOCC1)NC12CC3CC(CC(C3)C1)C2 [Compound 1015]

IC50 (mouse sEH; Tables 17a and b): 0.05 ± 0.01 µM
IC50 (human sEH; [5]): 6 ± 0.01 µM
SMILES: O=C(NCCCN1CCOCC1)NC12CC3CC(CC(C3)C1)C2 [Compound 1016]

IC50 (mouse sEH; Table 8, established protocols): 0.05 ± 0.01 µM
IC50 (human sEH; [6]): 0.43 ± 0.02 µM
SMILES: CCCCCOC(=O)CCCNC(=O)CC12CC3CC(CC(C3)C1)C2 [Compound 1017]

IC50 (mouse sEH; Table 8, established protocols): 0.05 ± 0.01 µM
IC50 (human sEH; [6]): 0.1 ± 0.01 µM
SMILES: CCCCCCCCCCNC(=O)CC12CC3CC(CC(C3)C1)C2 [Compound 1018]
